The values below come from US10975384B2, “PYL9 and uses thereof” (PURDUE RESEARCH FOUNDATION, priority 2015, dated 2021).

The test system of assay [1] is pRD29A::PYL9 transgenic plants. Nature of the assay: Drought resistance of pRD29A::PYL9 transgenic Arabidopsis with ABA treatment. It is filed as in vivo. Particulars: 10 μM ABA applied once after water withheld for 12 d, plants after flowering. As to the method: Soil water content percentage during drought treatment in Arabidopsis was measured as described (27). We used 591-mL pots (48-7214; 04.00 SQ TL TW; Myers Industries) with 130 g (˜62 g oven dry weight) Fafard Super-Fine Germinating Mix Soil (Sungro Horticultures) per pot. After being saturated with water, the total weight of the wet soil was ˜440 g per pot. Pots were covered with plastic film to reduce water loss from soil surface. Three-week-old plants (four plants per pot) were subjected to drought stress by withholding water. Plants were sprayed with 2 mL 10 μM ABA plus 0.2% Tween-20 per pot after water was withheld for 12 d. Soil water content percentage was computed as total weight minus dry soil weight divided by water weight before drought according to the work (27). For drought treatment on rice, we measured the relative water content using the Soil Temperature/Moisture Meter L99-TWS-1 (Shanghai Fotel Precise Instrument Co., Ltd) following the work (40). Before drought treatment, the mixed vermiculite and sandy soil (Zhongfang Horticulture Co.) for rice was saturated with water, and the relative soil water content before drought was set as 100%. Rice plants at the four-leaf stage were subjected to drought by withholding water for 14 d, and the relative soil water content after the drought treatment was ˜20%.

The test system of assay [2] is Arabidopsis plants. Nature of the assay: Osmotic potential measurements after ABA spray. It is filed as in vivo. The following applies: developing bud tissue, 20 μM ABA spray, 2 d. As for the experimental part: Plant samples were collected in a plastic centrifuge tube filter (without membrane; Corning Costar Spin-X) and then, quick-frozen in liquid nitrogen. After thawing, the sap was collected by centrifuging at 16,000×g for 4 min to remove insoluble material. A 10-μL volume of cell sap was measured using a vapor pressure osmometer (Model 5200; Wescor). Solute concentration was converted to osmotic potential (Ψπ) using the van't Hoff law: Ψπ=−RTc, where c is the molar solute concentration (osmolality; moles kilogram-1), R is the gas constant (0.08314 L Bar mol−1 K−1), and T is the temperature in Kelvin.

The subject of assay [3] is ORE1 and AtNAP expression. The assay is described as follows: Quantitative RT-PCR of ORE1 and AtNAP in mature leaves after ABA. It is filed as in vivo, Arabidopsis. Particulars: 20 μM ABA spray. As to the method: Northern blot and real-time PCR were performed as reported (18). For Northern blot analysis, the probe was labeled with the PCR-DIG Probe Synthesis Kit (Roche). RD29A-F (SEQ ID NO. 83) and PYL9-R (SEQ ID NO. 84) were used for the PCR. For real-time PCR, reactions were performed with iQ SYBR Green Supermix (BioRad). The primers used include SEQ ID NOs. 71 to 80. Quantitative RT-PCR was conducted on mature leaves of 4-wk-old Arabidopsis plants that were growing in soil and sprayed with 20 μM ABA.

For assay [4], the system named is SAG12-LUC expression. Nature of the assay: SAG12-LUC transient expression assay in Arabidopsis protoplasts. It is filed as cell-based. The following applies: snrk2.2/3/6 triple-mutant protoplasts, ABA treatment. As for the experimental part: Assays for transient expression in protoplasts were performed as described (18). All steps were performed at room temperature. SAG12-LUC and ORE1L-LUC were used as the senescence-responsive reporters, and ZmUBQ-GUS was used as the internal control. After transfection, protoplasts were incubated in washing and incubation solution without ABA or with 5 μM ABA under light for 16 h.

As for `CC1=CC(=O)CC(C)(C)[C@@]1(O)/C=C/C(C)=C\C(=O)O` [ABA, abscisic acid], in assay [1], the drought resistance entry is listed as “significantly increased”. The osmotic potential result in assay [2] was “reduced”. For the same molecule, the “expression of ORE1 and AtNAP” value in assay [3] is listed as “induced”. Besides, the SAG12-LUC expression result in assay [4] was “not enhanced”.
